Reference: patent US20080199422A1, “Method for the Treatment of Myelodysplastic Syndromes Using 1-Oxo-2-(2,6-Dioxopiperidin-3-Yl-)-4-Methylisoindoline” (CELGENE CORPORATION, priority 2004, published 2008)
Read-outs that look alike come from different tables or passages of the source. Each block holds one compound with its values, some of them ahead of it.

What was measured:
TNF-α production [1] = settings: human PBMC, cited from earlier work; for IC50: LPS, read-out: IC50 for inhibiting production of TNF-α following LPS-stimulation of PBMC
MDS patients [2] = settings: cited from earlier work
[3] = test system: MDS bone marrow progenitor formation; test: MDS vs normal bone marrow progenitor formation in pre-clinical models; assay type: cell-based
Source text: (§1) The pharmacological effects of 3-(4amino-1-oxo-1,3-dihydro-isoindol-2-yl)-piperidine-2,6-dione derive from its action as an inhibitor of cellular response to receptor-initiated trophic signals (e.g., IGF-1, VEGF, cyclooxygenase-2), and other activities. As a result, 3-(4-amino-1-oxo-1,3-dihydro-isoindol-2-yl)-piperidine-2,6-dione suppresses the generation of inflammatory cytokines, down-regulates adhesion molecules and apoptosis inhibitory proteins (e.g., cFLIP, cIAP), promotes sensitivity to death-receptor initiated programmed cell death, and suppresses angiogenic response.

MDS patients [4] = test: Clinical study in MDS patients with transfusion-dependence or symptomatic anemia; assay type: in vivo, human
Description: Clinical studies were performed for the remitting potential of 3-(4-amino-1-oxo-1,3-dihydro-isoindol-2-yl)-piperidine-2,6-dione in MDS patients with red blood cell transfusion-dependence (>4 units/8 weeks) or symptomatic anemia (Hgb<10 g/dl). Patients received continuous treatment with 3-(4-amino-1-oxo-1,3-dihydro-isoindol-2-yl)-piperidine-2,6-dione at a oral dose of 25 mg daily. Responses were assessed according to IWG criteria after 16 weeks of treatments. Among 15 patients receiving the treatments, 11 patients were evaluable for toxicity, nine patients were evaluable for response (>8 wks therapy), and three patients discontinued the therapy prematurely (<2 weeks) due to cholecystitis, autoimmune hemolytic anemia, or patient refusal. Median age of the patients was 78 years ranging from 51 to 82 years. FAB types of the MDS patients include RA [4 patients], RARS [4 patients], RABB [6 patients], and RAEB-T [1 patient] with corresponding IPSS categories of Low/Int-1 in 11 patients and Int-2/High in four patients. Myelosuppression, which was characterized by higher than grade 3 common toxicity criteria or 50% decrease in leukocyte and platelet counts [9 patients], and grade 3 fatigue [1 patient], necessitated dose reduction to 10 mg in the initial ten patients. All subsequent patients initiated oral administrations with 10 mg daily. Grade 1, 2 drug-related adverse effects were limited to the 25 mg dose and included pruritus or itchy scalp [6 patients] and myalgia [1 patient]. Six (66%) of nine evaluable patients experienced hematologic benefit (dual lineage, 1 patient), including 6/7 (86%) patients with IPSS Low/Int-1. Hematologic responses included RBC transfusion-independence [4 patients], decrease in RBC transfusions of more than 50% [1 patient], increase in Hgb of more than 1.5 g [1 patient], and one minor platelet response (increase of more than 30,000/μL ). Among five patients evaluable for cytogenetic response, three patients achieved either a complete or partial (decrease in abnormal metaphases of more than 50%) remission. […] Correlation with changes in apoptotic index, angiogenic features (cellular/plasma VEGF, micro vessel density), cytokine generation, and proliferative fraction (Ki67) are in progress. […] Clinical benefit appears greatest in patients with low/intermediate-1 disease or the 5q-syndrome, associated with resolution of cytology dysplasia.

MDS patients [5] = test: Expanded clinical study, additional 16 MDS patients; assay type: in vivo, human
Source text: The clinical study was expanded with additional 16 MDS patients for at least eight weeks. According to the IPSS, 13 of these patients were categorized as low- or intermediate-1-risk patients and three patients were grouped as intermediate-2- or high-risk patients. According to the FAB classification, there were 11 patients with refractory anemia (RA) or RA with ringed sideroblasts (RARS), and five patients with RA with excess blasts (RAEB), RAEB in transformation (RAEB-T). The starting dose of 3-(4-amino-1-oxo-1,3-dihydro-isoindol-2-yl)-piperidine-2,6-dione was 25 mg daily for the first 13 patients and 10 mg daily for the remaining three patients. All patients receiving the starting dose of 25 mg required dose reduction by the completion of eight weeks therapy. Among these 16 patients who completed at least 8 weeks of monitoring, nine patients achieved an erythroid response as assessed by the International MDS Working Group Criteria. The erythroid responses consisted of transfusion independence in seven previously transfusion-dependent patients, a >2 g/dL rise in blood hemoglobin concentration in one patient in with transfusion-independent anemia, and a >50% decrease in RBC transfusion requirement in one transfusion-dependent patient. […] In addition, complete cytogenetic responses developed in five in eight patients with abnormal karyotypes at baseline. These five patients with complete cytogenetic responses all had the Del5q3 1-33 abnormality, which has been discovered to be a good prognostic factor for MDS. Indeed, all five patients who enrolled in this study with 5q-syndrome achieved a complete cytogenetic response and a major erythroid response. The study also indicated an association of this therapy with an increased apoptotic index for myelodysplastic progenitors and recovery of normal hematopoietic progenitor cells.

AML cells = test: Mitogenic response to VEGF in AML cells; assay type: cell-based; settings: by extinguishing ligand-induced Akt-phosphorylation
Source text: as §1

TNF-α production [6] = settings: cited from earlier work
[7] = 25 mg daily, initial ten patients, necessitated dose reduction to 10 mg

Compound: O=C1CCC(N2C(=O)c3ccccc3C2=O)C(=O)N1 (racemic) [Thalidomide, 2-(2,6-dioxo-3-piperidinyl)-1H-isoindole-1,3(2H)-dione, reference compound]
IC50 (TNF-α production [1]): ~194000 nM
IC50 for inhibiting production of TNF-α following LPS-stimulation of PBMC (TNF-α production [1]): ~50.2 µg/mL

Compound: recombinant human EPO: recombinant human erythropoietin (EPO), hematopoietic growth factor
patients with sustained improvement in hemoglobin or decrease in transfusion requirement (MDS patients [2]): less than 25%

grade 3 fatigue (MDS patients [4]; [7]): 1 patient
Grade 1, 2 drug-related myalgia (MDS patients [4]; 25 mg dose): 1 patient
Grade 1, 2 drug-related pruritus or itchy scalp (MDS patients [4]; 25 mg dose): 6 patients
patients requiring dose reduction by completion of eight weeks therapy (MDS patients [5]; starting dose of 25 mg (first 13 patients)): All patients
Compound: Nc1cccc2c1CN(C1CCC(=O)NC1=O)C2=O (stereo not drawn) [3-(4-amino-1-oxo-1,3-dihydro-isoindol-2-yl)-piperidine-2,6-dione]
MDS vs normal bone marrow progenitor formation [3]: selectively suppresses
tolerability (MDS patients [4]; 10 mg continuous oral daily dose): well-tolerated with minimal myelosuppression
myelosuppression (higher than grade 3 common toxicity criteria or 50% decrease in leukocyte and platelet counts) (MDS patients [4]; [7]): 9 patients
patients with hematologic benefit, IPSS Low/Int-1 (MDS patients [4]; 6/7 patients with IPSS Low/Int-1): 86%
complete or partial cytogenetic remission (decrease in abnormal metaphases of more than 50%) (MDS patients [4]; among five patients evaluable for cytogenetic response): three
RBC transfusion-independence (MDS patients [4]; of nine evaluable patients): 4 patients
decrease in RBC transfusions of more than 50% (MDS patients [4]; of nine evaluable patients): 1 patient
increase in Hgb of more than 1.5 g (MDS patients [4]; of nine evaluable patients): 1 patient
minor platelet response (increase of more than 30,000/μL) (MDS patients [4]; of nine evaluable patients): one
erythropoietic and cytogenetic remitting activity (MDS patients [4]; patients with low/intermediate-1 risk MDS): remarkable erythropoietic and cytogenetic remitting activity
normalization of blast percentage (MDS patients [4]; responders): 1 patient
patients with hematologic benefit (MDS patients [4]; six of nine evaluable patients, oral 25 mg daily, reduced to 10 mg, IWG criteria): 66%
erythroid response (International MDS Working Group Criteria) (MDS patients [5]; among 16 patients, at least 8 weeks, start 25 mg or 10 mg daily): nine
complete cytogenetic responses (MDS patients [5]; in eight patients with abnormal karyotypes at baseline): five
major erythroid response (MDS patients [5]; of 16 patients): eight
minor erythroid response (MDS patients [5]; of 16 patients): one
minor platelet response (MDS patients [5]; of 16 patients): One
complete cytogenetic response and major erythroid response in 5q-syndrome (MDS patients [5]; patients enrolled with 5q-syndrome): all five
transfusion independence (MDS patients [5]; previously transfusion-dependent patients): seven
>50% decrease in RBC transfusion requirement (MDS patients [5]; transfusion-dependent patient): one
>2 g/dL rise in blood hemoglobin concentration (MDS patients [5]; transfusion-independent anemia): one
mitogenic response to VEGF (AML cells): abrogates mitogenic response to VEGF
IC50 (TNF-α production [1]): ~100 nM
IC50 for inhibiting production of TNF-α following LPS-stimulation of PBMC (TNF-α production [1]): ~0.0259 µg/mL
IC50 for inhibiting production of TNF-α following LPS-stimulation of human whole blood (TNF-α production [6]): ~0.1036 µg/mL
IC50 (TNF-α production [6]; human whole blood, LPS, read-out: IC50 for inhibiting production of TNF-α following LPS-stimulation of human whole blood): ~480 nM
